# Literature values as cited in patent US20140030241A1 (NESTEC S.A., priority 2011, published 2014).
# Assays:
# IgG and IgM response = conditions: rodents
# Candida albicans = conditions: rodents on nucleotide free diet, Candida albicans challenge
# [1] = enters circulation without being metabolized by the liver
# Splenic lymphocytes = conditions: rodents on nucleotide free diets, additions to the diet
Structure (SMILES),IgG response (IgG and IgM response),survival time (Candida albicans),other results
"Nc1ncnc2c1ncn2[C@@H]1O[C@H](COP(=O)(O)O)[C@@H](O)[C@H]1O [AMP, 5-Adenosine Monophosphate]",increased IgG response,,
"Nc1nc2c(ncn2[C@@H]2O[C@H](COP(=O)(O)O)[C@@H](O)[C@H]2O)c(=O)[nH]1 [GMP, 5′-Guanosine Monophosphate]",increased IgG response,,IgM response (IgG and IgM response): increase IgM response
"O=c1ccn([C@@H]2O[C@H](COP(=O)(O)O)[C@@H](O)[C@H]2O)c(=O)[nH]1 [UMP, 5′-Uracil Monophosphate]",increased IgG response,,
Nc1ncnc2nc[nH]c12 [adenine],,not,
NC(=O)NCCC[C@H](N)C(=O)O [citrulline],,,conversion to arginine in the kidneys [1]: almost complete
O=c1cc[nH]c(=O)[nH]1 [uracil],,increase survival time,"suppressed cell-mediated immune responses (proliferation to mitogens, IL-2 production, IL-2 receptor and Lyt-1 markers, delayed cutaneous hypersensitivity) (Splenic lymphocytes): largely reversed"
